We go through one compound from paper PMC8674134, “Safety and efficacy of avapritinib in advanced systemic mastocytosis: the phase 1 EXPLORER trial” (Nature Medicine, 2021).

The subject of test [1] is advanced systemic mastocytosis (AdvSM). The test is described as follows: Kaplan–Meier estimates of DOR, PFS and OS. Format: in vivo, human. Here is the method:
Spleen response was determined for patients with baseline splenomegaly (spleen ≥ 5 cm by palpation) and was assessed by palpation or spleen volume by imaging (that is, ≥35% reduction from baseline in spleen volume based on central imaging); presence of either criterion was considered a response. DOR started at the first evidence of a response in any evaluable C-finding (per mIWG-MRT-ECNM criteria) and ended at the time a response was lost (that is, loss of response per mIWG-MRT-ECNM criteria). For patients who were still responding at the time of analysis, DOR was censored at the latest time point that the patient is assessed as having clinical improvement or better. OS was analyzed in the safety population and was defined as the time from first dose to the time of death due to any cause. PK data were summarized for patients with sufficient plasma concentration–time data. Descriptive statistics were used to summarize PK parameters for each dose level, as appropriate.
ORR was defined as the proportion of patients with a confirmed best response of CR, CRh, PR or clinical improvement by mIWG-MRT-ECNM consensus criteria. Time to CR/CRh/PR was defined as the time from the start of treatment to the time a CR/CRh/PR by mIWG-MRT-ECNM was first met. DOR was defined as the time from first documented response to the date of first documented progressive disease/loss of response or death due to any cause, whichever occurred first. OS was defined as the time from the start of treatment to the date of death. PFS was defined as the time from the start of treatment to the date of first documented progressive disease or death due to any cause, whichever occurred first. Progressive disease was defined per mIWG-MRT-ECNM criteria as worsening of ≥1 baseline C-finding confirmed for at least 4 weeks, or progression to acute myeloid leukemia.
OS, PFS and DOR were determined by Kaplan–Meier estimates, and 95% CIs were estimated using Greenwood’s formula[41]. Comparisons between two Kaplan–Meier functions was performed using a log-rank test.

The test system of test [2] is SM-associated symptoms. The test is described as follows: On-study corticosteroid usage. It is filed as in vivo, human. Here is the method:
At baseline, approximately one-third of patients overall (29 patients; 34%) were using corticosteroids. After baseline, as a result of improvement in SM-associated symptoms, 19 patients (66%) reduced their corticosteroid usage, of whom 12 (41%) patients discontinued corticosteroid use entirely, while 7 (24%) were able to reduce the dose.
Corticosteroid treatment, not exceeding doses administered during screening, was permitted; doses higher than 20 mg daily prednisone equivalent were avoided, and prolonged treatment (>14 d) with high-dose corticosteroids rendered patients ineligible for response assessment.

With `Cn1cc(-c2cc3c(N4CCN(c5ncc([C@@](C)(N)c6ccc(F)cc6)cn5)CC4)ncnn3c2)cn1` [avapritinib], the “Median duration of response (DOR)” value in test [1] (95% CI, 22 months–not estimable) is recorded as 38 months. For the same compound, in test [1] (95% CI, 49–84%), the “Estimated 24-month DOR rate” value is recorded as 67%. Besides, the “Estimated 12-month DOR rate” value in test [1] (95% CI, 72–96%) is 84%. Also, the “Median OS” value in test [1] (AdvSM safety population (n = 69), median follow-up 23 months) is recorded as “not reached”. Besides, the “Estimated 24-month OS rate” value in test [1] (overall AdvSM, 95% CI, 64–87%) was 76%; in test [1] (patients with ASM), 100%; in test [1] (patients with MCL, 95% CI, 76–100%), 92%; in test [1] (patients with SM-AHN) it was 67%. Also, in test [1] (patients with a MARS of 0–1, post hoc), the “OS (24-month OS rate)” value is reported as 100%. The “Estimated PFS rate at 24 months” value in test [1] (response-evaluable population (n = 53), 95% CI, 48–79%) is listed as 63%. In addition, the “Estimated PFS rate at 12 months” value in test [1] (response-evaluable population (n = 53), 95% CI, 73–94%) is on record as 84%. Also, in test [1] (six patients, during the study), the “Patients who progressed to acute myeloid leukemia” value is on record as 9%. In addition, in test [2] (7 of 29 patients using corticosteroids at baseline), the “Patients able to reduce the corticosteroid dose” value was 24%. Also, the “Patients who discontinued corticosteroid use entirely” value in test [2] (12 of 29 patients using corticosteroids at baseline) was 41%. For the same compound, the “Patients who reduced their corticosteroid usage” value in test [2] (19 of 29 patients using corticosteroids at baseline) is 66%.
